Converted amounts (≈) assume the structure as drawn. Where two headings read alike, the source gives them in different places. Positions of bridges follow the written chain, without caps; N, C: chain ends. Non-standard residues stand in square brackets, D forms with d. Residues, ends and D or L forms follow the SMILES beside them. *: point of attachment. Benzoyl(3-CF3) = O=C(c1cccc(C(F)(F)F)c1)*; Hydrocinnamoyl = O=C(CCc1ccccc1)*; X38 = O=C(c1ccc(Cl)cc1C(F)(F)F)*; X37 = O=C(c1ccc(C(F)(F)F)cc1F)*; X41 = O=S(=O)(c1ccc(Cl)cc1Cl)*; X28 = O=C(c1ccc(F)cc1Cl)*; X3 = O=C(c1ccc(Cl)cc1Cl)*; X31 = O=C(c1ccc(Cl)cc1F)*; Octanoyl = CCCCCCCC(=O)*; Orn = NCCC[C@H](N)C(=O)O; Dab = NCC[C@H](N)C(=O)O; Abu = CC[C@H](N)C(=O)O; Dap = NC[C@H](N)C(=O)O
Key:
Enterobacter cloacae = tested on: Enterobacter cloacae
Outline: (§1)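 Broth microdilution MICs following CLSI standards in cation-adjusted Mueller-Hinton broth. Lipopeptides tested as TFA salts; polymyxin B sulphate served as control.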

Acinetobacter baumannii = tested on: Acinetobacter baumannii
Outline: as §1

Pseudomonas aeruginosa = tested on: Pseudomonas aeruginosa
Outline: as §1

[1] = Enterobacter cloacae FADDI-EC001, broth microdilution in CAMHB, TFA salt
[2] = Enterobacter cloacae FADDI-EC003, broth microdilution in CAMHB, TFA salt
[3] = Enterobacter cloacae FADDI-EC006, broth microdilution in CAMHB, TFA salt
[4] = Acinetobacter baumannii ATCC 17978, broth microdilution in CAMHB, TFA salt
[5] = Acinetobacter baumannii ATCC 19606, broth microdilution in CAMHB, TFA salt
[6] = Acinetobacter baumannii FADDI-AB034, broth microdilution in CAMHB, TFA salt
[7] = Pseudomonas aeruginosa ATCC 27853, broth microdilution in CAMHB, TFA salt
[8] = Pseudomonas aeruginosa FADDI-PA022, broth microdilution in CAMHB, TFA salt
[9] = Pseudomonas aeruginosa FADDI-PA025, broth microdilution in CAMHB, TFA salt

| Compound | Minimum inhibitory concentration, Ec FADDI-EC001 (Enterobacter cloacae) [mg/L] | Minimum inhibitory concentration, Ec FADDI-EC003 (Enterobacter cloacae) [mg/L] | Minimum inhibitory concentration, Ec FADDI-EC006 (Enterobacter cloacae) [mg/L] | Minimum inhibitory concentration, Ab A ATCC 17978 (Acinetobacter baumannii) [mg/L] | Minimum inhibitory concentration, Ab ATCC 19606 (Acinetobacter baumannii) [mg/L] | Minimum inhibitory concentration, Ab FADDI-AB034 (Acinetobacter baumannii) [mg/L] | Minimum inhibitory concentration, Pa ATCC 27853 (Pseudomonas aeruginosa) [mg/L] | Minimum inhibitory concentration, Pa FADDI-PA022 (Pseudomonas aeruginosa) [mg/L] | Minimum inhibitory concentration, Pa FADDI-PA025 (Pseudomonas aeruginosa) [mg/L] | Minimum inhibitory concentration (MIC), Ec FADDI-EC001 (Enterobacter cloacae; [1]) [mg/L] | Minimum inhibitory concentration (MIC), Ec FADDI-EC003 (Enterobacter cloacae; [2]) [mg/L] | Minimum inhibitory concentration (MIC), Ec FADDI-EC006 (Enterobacter cloacae; [3]) [mg/L] | Minimum inhibitory concentration (MIC), Ab ATCC 17978 (Acinetobacter baumannii; [4]) [mg/L] | Minimum inhibitory concentration (MIC), Ab ATCC 19606 (Acinetobacter baumannii; [5]) [mg/L] | Minimum inhibitory concentration (MIC), Ab FADDI-AB034 (Acinetobacter baumannii; [6]) [mg/L] | Minimum inhibitory concentration (MIC), Pa ATCC 27853 (Pseudomonas aeruginosa; [7]) [mg/L] | Minimum inhibitory concentration (MIC), Pa FADDI-PA022 (Pseudomonas aeruginosa; [8]) [mg/L] | Minimum inhibitory concentration (MIC), Pa FADDI-PA025 (Pseudomonas aeruginosa; [9]) [mg/L] | further results |
| --- | --- | --- | --- | --- | --- | --- | --- | --- | --- | --- | --- | --- | --- | --- | --- | --- | --- | --- | --- |
| CCCCCCCC(=O)N[C@@H](CCN)C(=O)N[C@H](C(=O)N[C@@H](CN)C(=O)N[C@H]1CCNC(=O)[C@H]([C@@H](C)O)NC(=O)[C@H](CCN)NC(=O)[C@H](CCN)NC(=O)[C@H](C)NC(=O)[C@@H](Cc2ccccc2)NC(=O)[C@H](CCN)NC1=O)[C@@H](C)O [Compound 128] (Octanoyl-[Dab]T[Dap][Dab][Dab][dF]A[Dab][Dab]T; lactam 4-C) | <0.125 | 0.25 (≈ 0.221 µM) | 0.5 (≈ 0.441 µM) | 0.25 (≈ 0.221 µM) | 0.25 (≈ 0.221 µM) | 0.25 (≈ 0.221 µM) | 0.5 (≈ 0.441 µM) | 1 (≈ 0.882 µM) | 4 (≈ 3.53 µM) |  |  |  |  |  |  |  |  |  |  |
| CC[C@@H]1NC(=O)[C@@H](CC(C)C)NC(=O)[C@H](CCN)NC(=O)[C@@H](NC(=O)[C@H](CN)NC(=O)[C@@H](NC(=O)[C@H](CCN)NC(=O)c2ccc(Cl)cc2F)[C@@H](C)O)CCNC(=O)[C@H]([C@@H](C)O)NC(=O)[C@H](CCN)NC(=O)[C@H](CCN)NC1=O [Compound 134] (X31-[Dab]T[Dap][Dab][Dab][dL][Abu][Dab][Dab]T; lactam 4-C) | 0.25 (≈ 0.219 µM) | <0.125 | <0.125 | 2 (≈ 1.75 µM) | 2 (≈ 1.75 µM) | 0.5 (≈ 0.437 µM) | 0.5 (≈ 0.437 µM) | 1 (≈ 0.874 µM) | 1 (≈ 0.874 µM) |  |  |  |  |  |  |  |  |  |  |
| CC[C@@H]1NC(=O)[C@@H](CC(C)C)NC(=O)[C@H](CCN)NC(=O)[C@@H](NC(=O)[C@H](CN)NC(=O)[C@@H](NC(=O)[C@H](CCN)NC(=O)c2ccc(F)cc2Cl)[C@@H](C)O)CCNC(=O)[C@H]([C@@H](C)O)NC(=O)[C@H](CCN)NC(=O)[C@H](CCN)NC1=O [Compound 135] (X28-[Dab]T[Dap][Dab][Dab][dL][Abu][Dab][Dab]T; lactam 4-C) | <0.125 | <0.125 | <0.125 | 1 (≈ 0.874 µM) | 4 (≈ 3.5 µM) | 1 (≈ 0.874 µM) | 0.5 (≈ 0.437 µM) | 1 (≈ 0.874 µM) | 2 (≈ 1.75 µM) |  |  |  |  |  |  |  |  |  |  |
| CC[C@@H]1NC(=O)[C@@H](CC(C)C)NC(=O)[C@H](CCN)NC(=O)[C@@H](NC(=O)[C@H](CN)NC(=O)[C@@H](NC(=O)[C@H](CCN)NC(=O)c2ccc(Cl)cc2C(F)(F)F)[C@@H](C)O)CCNC(=O)[C@H]([C@@H](C)O)NC(=O)[C@H](CCN)NC(=O)[C@H](CCN)NC1=O [Compound 136] (X38-[Dab]T[Dap][Dab][Dab][dL][Abu][Dab][Dab]T; lactam 4-C) | <0.125 | <0.125 | 0.25 (≈ 0.209 µM) | 0.5 (≈ 0.419 µM) | 0.5 (≈ 0.419 µM) | 0.25 (≈ 0.209 µM) | 0.5 (≈ 0.419 µM) | 2 (≈ 1.68 µM) | 1 (≈ 0.838 µM) |  |  |  |  |  |  |  |  |  |  |
| CC[C@@H]1NC(=O)[C@@H](CC(C)C)NC(=O)[C@H](CCN)NC(=O)[C@@H](NC(=O)[C@H](CN)NC(=O)[C@@H](NC(=O)[C@H](CCN)NC(=O)c2ccc(C(F)(F)F)cc2F)[C@@H](C)O)CCNC(=O)[C@H]([C@@H](C)O)NC(=O)[C@H](CCN)NC(=O)[C@H](CCN)NC1=O [Compound 137] (X37-[Dab]T[Dap][Dab][Dab][dL][Abu][Dab][Dab]T; lactam 4-C) |  |  |  |  |  |  |  |  |  |  |  |  |  |  |  |  |  |  | Minimum inhibitory concentration (MIC), Ec FADDI-EC001 (Enterobacter cloacae): <0.125 mg/L; Minimum inhibitory concentration (MIC), Ec FADDI-EC003 (Enterobacter cloacae): <0.125 mg/L; Minimum inhibitory concentration (MIC), Ec FADDI-EC006 (Enterobacter cloacae): <0.125 mg/L; Minimum inhibitory concentration (MIC), Ab ATCC 17978 (Acinetobacter baumannii): 0.25 mg/L (≈ 0.212 µM); Minimum inhibitory concentration (MIC), Ab ATCC 19606 (Acinetobacter baumannii): 0.5 mg/L (≈ 0.425 µM); Minimum inhibitory concentration (MIC), Ab FADDI-AB034 (Acinetobacter baumannii): 0.25 mg/L (≈ 0.212 µM); Minimum inhibitory concentration (MIC), Pa ATCC 27853 (Pseudomonas aeruginosa): 0.5 mg/L (≈ 0.425 µM); Minimum inhibitory concentration (MIC), Pa FADDI-PA022 (Pseudomonas aeruginosa): 1 mg/L (≈ 0.849 µM); Minimum inhibitory concentration (MIC), Pa FADDI-PA025 (Pseudomonas aeruginosa): 4 mg/L (≈ 3.4 µM) |
| CC[C@@H]1NC(=O)[C@@H](CC(C)C)NC(=O)[C@H](CCN)NC(=O)[C@@H](NC(=O)[C@H](CN)NC(=O)[C@@H](NC(=O)[C@H](CCCN)NC(=O)c2cccc(C(F)(F)F)c2)[C@@H](C)O)CCNC(=O)[C@H]([C@@H](C)O)NC(=O)[C@H](CCN)NC(=O)[C@H](CCN)NC1=O [Compound 141] ({Benzoyl(3-CF3)}-[Orn]T[Dap][Dab][Dab][dL][Abu][Dab][Dab]T; lactam 4-C) |  |  |  |  |  |  |  |  |  |  |  |  |  |  |  |  |  |  | Minimum inhibitory concentration (MIC), Ec FADDI-EC001 (Enterobacter cloacae): 2 mg/L (≈ 1.7 µM); Minimum inhibitory concentration (MIC), Ec FADDI-EC003 (Enterobacter cloacae): 1 mg/L (≈ 0.852 µM); Minimum inhibitory concentration (MIC), Ec FADDI-EC006 (Enterobacter cloacae): 4 mg/L (≈ 3.41 µM); Minimum inhibitory concentration (MIC), Ab ATCC 17978 (Acinetobacter baumannii): 4 mg/L (≈ 3.41 µM); Minimum inhibitory concentration (MIC), Ab ATCC 19606 (Acinetobacter baumannii): 16 mg/L (≈ 13.6 µM); Minimum inhibitory concentration (MIC), Ab FADDI-AB034 (Acinetobacter baumannii): 4 mg/L (≈ 3.41 µM); Minimum inhibitory concentration (MIC), Pa ATCC 27853 (Pseudomonas aeruginosa): 1 mg/L (≈ 0.852 µM); Minimum inhibitory concentration (MIC), Pa FADDI-PA022 (Pseudomonas aeruginosa): 1 mg/L (≈ 0.852 µM); Minimum inhibitory concentration (MIC), Pa FADDI-PA025 (Pseudomonas aeruginosa): 2 mg/L (≈ 1.7 µM) |
| CC[C@@H]1NC(=O)[C@@H](CC(C)C)NC(=O)[C@H](CCN)NC(=O)[C@@H](NC(=O)[C@H](CN)NC(=O)[C@@H](NC(=O)[C@H](CCN)NC(=O)CCc2ccccc2)[C@@H](C)O)CCNC(=O)[C@H]([C@@H](C)O)NC(=O)[C@H](CCN)NC(=O)[C@H](CCN)NC1=O [Compound 145] (Hydrocinnamoyl-[Dab]T[Dap][Dab][Dab][dL][Abu][Dab][Dab]T; lactam 4-C) |  |  |  |  |  |  |  |  |  | 0.5 | <0.125 | <0.125 | 0.5 | 1 | 0.5 | 0.5 | 0.5 | 1 |  |
| CC[C@@H]1NC(=O)[C@@H](CC(C)C)NC(=O)[C@H](CCN)NC(=O)[C@@H](NC(=O)[C@H](CCCN)NC(=O)[C@@H](NC(=O)[C@H](CCN)NC(=O)c2ccc(Cl)cc2Cl)[C@@H](C)O)CCNC(=O)[C@H]([C@@H](C)O)NC(=O)[C@H](CCN)NC(=O)[C@H](CCN)NC1=O [Compound 147] (X3-[Dab]T[Orn][Dab][Dab][dL][Abu][Dab][Dab]T; lactam 4-C) |  |  |  |  |  |  |  |  |  | <0.125 | 1 | 1 | 4 | 4 | 2 | 1 | 1 | >32 |  |
| CC[C@@H]1NC(=O)[C@@H](CC(C)C)NC(=O)[C@H](CCN)NC(=O)[C@@H](NC(=O)[C@H](CN)NC(=O)[C@@H](NC(=O)[C@H](CCN)NS(=O)(=O)c2ccc(Cl)cc2Cl)[C@@H](C)O)CCNC(=O)[C@H]([C@@H](C)O)NC(=O)[C@H](CCN)NC(=O)[C@H](CCN)NC1=O [Compound 148] (X41-[Dab]T[Dap][Dab][Dab][dL][Abu][Dab][Dab]T; lactam 4-C) |  |  |  |  |  |  |  |  |  | 2 | 4 | 1 | 0.5 | 2 | 1 | 1 | 1 | 16 |  |

From patent USRE48335E1, “Polymyxin derivatives as antimicrobial compounds” (priority 2014, dated 2020)
